Source: patent US9464092B2, “Transient protection of normal cells during chemotherapy” (G1 Therapeutics, Inc., priority 2013, dated 2016)
Where two headings read alike, the source gives them in different places.

Key:
CDK2/CyclinE = CDK2/CyclinE (Homo sapiens (Human), UniProt P24941); test: CDK2/CyclinE kinase assay (Nanosyn, Caliper microfluidic); format: biochemical; details: for IC50: read-out: CDK2/CycE IC50
Procedure: (§1) Selected compounds disclosed herein were tested in CDK4/cyclinD1, CDK6/CycD3 CDK2/CycA and CDK2/cyclinE kinase assays by Nanosyn (Santa Clara, Calif.) to determine their inhibitory effect on these CDKs. The assays were performed using microfluidic kinase detection technology (Caliper Assay Platform). The compounds were tested in 12-point dose-response format in singlicate at Km for ATP. Phosphoacceptor substrate peptide concentration used was 1 μM for all assays and Staurosporine was used as the reference compound for all assays.

[1] = Mouse pharmacokinetics (oral gavage / intravenous); format: in vivo, mice; details: mouse
CDK2/CyclinA = CDK2/CyclinA (Homo sapiens (Human), UniProt P24941); test: CDK2/CyclinA kinase assay (Nanosyn, Caliper microfluidic); format: biochemical; details: for IC50: read-out: CDK2/CycA IC50
Procedure: as §1, with “assays. Specifics of each assay are as described below:” for “assays.”
CDK2/CyclinA: Enzyme concentration: 0.2 nM; ATP concentration: 50 μM; Incubation time: 3 hr.

CDK4/CyclinD1 = CDK4/CyclinD1 (Homo sapiens (Human), UniProt P11802); test: CDK4/CyclinD1 kinase assay (Nanosyn, Caliper microfluidic); format: biochemical; details: Table 2; read-out: CDK4/CycD1 IC50
Procedure: as §1, with “assays. Specifics of each assay are as described below:” for “assays.”
CDK4/CyclinD1: Enzyme concentration: 1 nM; ATP concentration: 200 μM; Incubation time: 10 hr.

CDK4/CyclinD1, sequence (P11802 whole entry, species assumed): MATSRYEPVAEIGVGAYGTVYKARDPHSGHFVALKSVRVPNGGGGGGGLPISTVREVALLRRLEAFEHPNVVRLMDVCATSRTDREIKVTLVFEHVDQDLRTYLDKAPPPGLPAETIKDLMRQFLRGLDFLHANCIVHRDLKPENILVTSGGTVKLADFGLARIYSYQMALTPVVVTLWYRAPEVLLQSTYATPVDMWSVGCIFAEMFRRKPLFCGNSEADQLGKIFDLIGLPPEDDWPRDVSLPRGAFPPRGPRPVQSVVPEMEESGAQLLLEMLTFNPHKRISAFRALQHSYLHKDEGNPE
CDK4/CyclinD1, sequence (P24385 whole entry partner, species assumed): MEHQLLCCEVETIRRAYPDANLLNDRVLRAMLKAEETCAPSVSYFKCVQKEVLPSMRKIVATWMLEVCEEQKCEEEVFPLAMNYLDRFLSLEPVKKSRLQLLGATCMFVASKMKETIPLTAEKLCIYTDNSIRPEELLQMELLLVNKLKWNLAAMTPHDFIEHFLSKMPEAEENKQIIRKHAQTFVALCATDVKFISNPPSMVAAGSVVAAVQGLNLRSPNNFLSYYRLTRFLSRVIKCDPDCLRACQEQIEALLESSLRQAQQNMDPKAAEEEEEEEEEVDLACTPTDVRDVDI

Row | Structure (SMILES) | IC50 (CDK2/CyclinE; Table 2) | IC50 (CDK2/CyclinA; Table 2) | Fold Selectivity (CDK2/CycE/CDK4) (CDK2/CyclinE; Table 2) | Fold Selectivity (CDK2/CycA/CDK4) (CDK2/CyclinA; Table 2) | IC50 (CDK4/CyclinD1) | further results
1 | O=C1NCC2(CCCCC2)n2c1cc1cnc(Nc3ccc(N4CCC(N5CCOCC5)CC4)cn3)nc12 [Compound U, 2′-((5-(4-morpholinopiperidin-1-yl)pyridin-2-yl)amino)-7′,8′-dihydro-6′H-spiro[cyclohexane-1,9′-pyrazino[1′,2′:1,5]pyrrolo[2,3-d]pyrimidin]-6′-one] | 1460 nM | 857 nM |  |  |  | IC50 (CDK2/CyclinE; Table 3): 1460 nM; F [1]: 67%; half-life ([1]; plasma, po, 30 mg/kg, 30 mg/kg oral gavage, read-out: t1/2 p.o. (converted)): 180 min; half-life ([1]; plasma, po, 30 mg/kg, read-out: plasma half-life following oral administration): 180 to 300 min; bioavailability ([1]; plasma, po, 30 mg/kg, read-out: oral bioavailability (F (%))): 52 to 80%; AUC(0-inf) ([1]; plasma, iv, 10 mg/kg i.v.): 0.76 µM·h; clearance ([1]; plasma, iv, 10 mg/kg i.v.): 52 mL/min/kg; Vd ([1]; plasma, iv, 10 mg/kg i.v., read-out: Vss): 3.4 L/kg; AUC ([1]; plasma, 30 mg/kg oral gavage): 3.3 µM·h; Cmax ([1]; plasma, 30 mg/kg oral gavage): 4.2 µM; Tmax ([1]; plasma, 30 mg/kg oral gavage): 30 min; IC50 (CDK2/CyclinA; Table 3): 857 nM
2 | CCN(CC)C1CCN(c2ccc(Nc3ncc4cc5n(c4n3)C3(CCCC3)CNC5=O)nc2)CC1 [LLL] | 1620 nM | 4530 nM | 509 | 1425 | 3.2 nM | 
3 | O=C1NCC2(CCCCC2)n2c1cc1cnc(Nc3ccc(C(=O)N4CCN(C5CCC5)CC4)cn3)nc12 [LL] | 202 nM | 108 nM | 103 | 55 | 2 nM | 
4 | CC(C)N1CCN(c2ccc(Nc3ncc4cc5n(c4n3)C3(CCCCC3)CNC5=O)nc2)C[C@H]1C [L] | 4530 nM | 1490 nM | 789 | 260 | 5.7 nM | 
5 | CCOCCN1CCN(c2ccc(Nc3ncc4cc5n(c4n3)C3(CCCC3)CNC5=O)nc2)CC1 [MMM] | 1890 nM | 990 nM | 600 | 314 | 3.2 nM | 
6 | C[C@@H]1CN(c2ccc(Nc3ncc4cc5n(c4n3)C3(CCCCC3)CNC5=O)nc2)C[C@H](C)N1C[C@@H](C)O [MM] | 3390 nM | 597 nM | 1863 | 328 | 1.8 nM | 
7 | C[C@H]1CN(c2ccc(Nc3ncc4cc5n(c4n3)C3(CCCCC3)CNC5=O)nc2)CCN1CCC(C)(C)C [M] | 2280 nM | 1410 nM | 1004 | 621 | 2.3 nM | 
8 | CC1CN(c2ccc(Nc3ncc4cc5n(c4n3)C3(CCCC3)CNC5=O)nc2)CCN1CC1CC1 (stereo not drawn) [NNN] | 2930 nM | 1010 nM | 2154 | 743 | 1.4 nM | 
9 | C[C@@H]1CN(c2ccc(Nc3ncc4cc5n(c4n3)C3(CCCCC3)CNC5=O)nc2)CCN1C [NN] | 4700 nM | 1560 nM | 1274 | 423 | 3.7 nM | 
10 | O=C1NCC2(CCCC2)n2c1cc1cnc(Nc3ccc(C(=O)N4CCN(CC5CC5)CC4)cn3)nc12 [OOO] | 393 nM | 203 nM | 164 | 85 | 2.4 nM | 
11 | CCN(CC)C1CCN(c2ccc(Nc3ncc4cc5n(c4n3)C3(CCCCC3)CNC5=O)nc2)C1 (stereo not drawn) [QQ] | 3060 nM | 2570 nM | 746 | 627 | 4.1 nM | 
12 | O=C1NCC2(CCCC2)n2c1cc1cnc(Nc3ccc(N4CCOCC4)nn3)nc12 [SSS] | 2280 nM | 1880 nM | 1112 | 917 | 2 nM | 

Second part, led by results:

Row | IC50 (CDK2/CyclinE; Table 2) | IC50 (CDK2/CyclinA; Table 2) | Fold Selectivity (CDK2/CycE/CDK4) (CDK2/CyclinE; Table 2) | Fold Selectivity (CDK2/CycA/CDK4) (CDK2/CyclinA; Table 2) | IC50 (CDK4/CyclinD1) | Structure (SMILES) | further results
13 | 3980 nM | 570 nM | 442 | 63 | 9 nM | CC1CN(c2ccc(Nc3ncc4cc5n(c4n3)C3(CCCCC3)CNC5=O)nc2)C[C@@H](C)N1CC1CC1 (stereo partly drawn) [OO] | 
14 | 3600 nM | 3090 nM | 1146 | 984 | 3.1 nM | CC(C)N1CCN(c2ccc(Nc3ncc4cc5n(c4n3)C3(CCCCC3)CNC5=O)nc2)CC1C (stereo not drawn) [PP] | 
15 | 3560 nM | 1010 nM | 1085 | 308 | 3.3 nM | C[C@@H]1CN(c2ccc(Nc3ncc4cc5n(c4n3)C3(CCCCC3)CNC5=O)nc2)C[C@H](C)N1 [P] | 
16 | 1580 nM | 693 nM | 1374 | 603 | 1.2 nM | CCN(CC)C1CCN(C2CCN(c3ccc(Nc4ncc5cc6n(c5n4)C4(CCCCC4)CNC6=O)nc3)CC2)C1 (stereo not drawn) [RR] | 
17 | 1920 nM | 1360 nM | 3918 | 2776 | 0.5 nM | C[C@H]1CN(c2ccc(Nc3ncc4cc5n(c4n3)C3(CCCCC3)CNC5=O)nc2)CCN1C [R] | 
18 | 1460 nM | 1390 nM | 1865 | 1775 | 0.8 nM | CN(C)C1CCN(c2ccc(Nc3ncc4cc5n(c4n3)C3(CCCCC3)CNC5=O)nn2)CC1 [SS] | 
19 | 1250 nM | 342 nM | 718 | 197 | 1.7 nM | C[C@@H](O)CN1CCN(c2ccc(Nc3ncc4cc5n(c4n3)C3(CCCCC3)CNC5=O)nc2)CC1 [S] | 
20 | 1260 nM | 596 nM | 1550 | 733 | 0.8 nM | CC(C)N1CCN(c2ccc(Nc3ncc4cc5n(c4n3)C3(CCCCC3)CNC5=O)nn2)CC1 [TT] | 
21 | 2630 nM | 789 nM | 809 | 243 | 3.3 nM | C[C@@H](O)CN1CCN(c2ccc(Nc3ncc4cc5n(c4n3)C3(CCCC3)CNC5=O)nc2)C[C@@H]1C [VV] | 
22 | 3500 nM | 2130 nM | 1224 | 745 | 2.9 nM | C[C@@H]1CN(c2ccc(Nc3ncc4cc5n(c4n3)C3(CCCCC3)CNC5=O)nc2)CCN1 [V] | 
23 | 3970 nM | 539 nM | 1481 | 201 | 2.7 nM | CC1CN(c2ccc(Nc3ncc4cc5n(c4n3)C3(CCCCC3)CNC5=O)nc2)CCN1CC(C)(C)O (stereo not drawn) [W] | 
24 | 7300 nM | 6290 nM | 5615 | 4838 | 1.3 nM | C[C@H](O)CN1CCN(c2ccc(Nc3ncc4cc5n(c4n3)C3(CCCC3)CNC5=O)nc2)C[C@H]1C [XX] | 
25 | 11600 nM | 1840 nM | 12975 | 2058 | 0.9 nM | O=C1NCC2(CCCCC2)n2c1cc1cnc(Nc3ccc(N4CCC(N5CCC(C(F)(F)F)CC5)CC4)cn3)nc12 [X] | 
26 | 124 nM | 61 nM | 50 | 25 | 2.5 nM | O=C1NCC2(CCCCC2)n2c1cc1cnc(Nc3ccc(C(=O)N4CCNCC4)cn3)nc12 [Y] | 
27 | 3710 nM | 647 nM | 1174 | 205 | 3.2 nM | C[C@H](O)CN1[C@H](C)CN(c2ccc(Nc3ncc4cc5n(c4n3)C3(CCCCC3)CNC5=O)nc2)C[C@@H]1C [Z] | 
